In US11660309B2, “Prevention and treatment of inflammatory conditions” (GRI BIO, INC., priority 2011, dated 2023):
“Also recorded” adds a separate entry of the source.

How the values were obtained:
type I NKT cells [1] = assay: In vitro αGalCer-stimulated proliferation of splenic type I NKT cells ([3H]-thymidine incorporation); format: cell-based, naïve B6 mice; conditions: for type I NKT cell proliferation at optimal concentration of RAR agonist: Example 15, αGalCer 10 ng/ml, comparison among ATRA, Tretinoin, AM580, AC55649, CD1530
Description: Retinoic acid receptors (RARs) comprise three major subtypes: RARα, RAR β, and RARγ. The RAR agonist ATRA is not selective for a specific subtype. The contribution of RAR subtypes to inhibition of type I NKT cell activity was tested with subtype-selective RAR agonists as follows. Splenic cells were isolated from naïve B6 (WT) mice and cultured in vitro in the presence of [^3H]-thymidine, an optimal concentration of αGalCer, and graded concentrations of the pan-RAR agonist ATRA, the RARα agonist AM580, the RAR β 2 agonist AC55649 or the RARγ agonist CD1530. Proliferation of the type I NKT cells in response to αGalCer stimulation was measured by [^3H]-thymidine incorporation. […]
In vitro proliferation and cytokine release assays were performed on freshly isolated splenocytes and type I NKT cell hybridomas (1.2 Hyb). The cells were cultured in the presence of [3H]-thymidine and an optimal concentration of αGalCer (10 ng/ml) with titrating concentrations of ATRA, Tretinoin, the RARα agonist AM580, the RAR β agonist AC55649 or the RARγ agonist CD1530. Proliferation of the type I NKT cells in response to αGalCer stimulation was quantified by [^3H]-thymidine incorporation. IL-2 levels were measured using IL-2 sandwich ELISA. Optimal concentrations of the RAR agonists was determined. […]

type I NKT cells (Hy1.2) = assay: IL-2 secretion by type I NKT cell hybridoma (Hy1.2) with APCs and αGalCer (IL-2 sandwich ELISA); format: cell-based
Description: The affect of ATRA on IL-2 cytokine secretion by a type I NKT cells in response to an in vitro challenge with αGalCer was tested by co-culturing NKT cells (Hy1.2) and irradiated antigen-presenting cells (APCs) in vitro with an optimal concentration of αGalCer in the presence or absence of ATRA (0.15 μg/ml, 1.2 μg/ml, or 18.8 μg/ml) for a period of 16 hours. Supernatants were collected and secreted IL-2 levels were measured using IL-2 sandwich ELISA.
In vitro proliferation and cytokine release assays were performed on freshly isolated splenocytes and type I NKT cell hybridomas (1.2 Hyb). The cells were cultured in the presence of [3H]-thymidine and an optimal concentration of αGalCer (10 ng/ml) with titrating concentrations of ATRA, Tretinoin, the RARα agonist AM580, the RAR β agonist AC55649 or the RARγ agonist CD1530. Proliferation of the type I NKT cells in response to αGalCer stimulation was quantified by [^3H]-thymidine incorporation. IL-2 levels were measured using IL-2 sandwich ELISA. Optimal concentrations of the RAR agonists was determined.
In vitro proliferation and cytokine release assays were performed on freshly isolated splenocytes and type I NKT cell hybridomas (1.2 Hyb). The cells were cultured in the presence of [^3H]-thymidine and an optimal concentration of αGalCer (10 ng/ml) with increasing concentrations of ATRA or Tazarotene. Proliferation of the type I NKT cells in response to αGalCer stimulation was quantified by [H]-thymidine incorporation. IL-2 levels were measured using IL-2 sandwich ELISA.

type I NKT cells [2] = assay: Ex vivo proliferation and cytokine response to αGalCer of type I NKT cells from RAR agonist injected mice; format: in vivo; conditions: for proliferative response of splenic type I NKT cells to αGalCer stimulation: Example 17, cells from mice injected i.p. 15 mg/kg daily for 5 days, vs vehicle (DMSO)
Description: Functional changes in type I NKT cells following ATRA administration were further tested. In two independent experiments, groups of Black 6 (WT) mice were injected intraperitoneally with 0.3 mg/animal (˜15 mg/Kg body weight) ATRA or vehicle (DMSO) daily for a period of 5 days. Type I NKT cells were purified and cultured in vitro with increasing concentrations of αGalCer. Cell proliferation was measured and supernatants were collected. The cytokine response of the isolated type I NKT after in vitro challenge with αGalCer was determined by sandwich ELISA for IFN-γ, IL-4, IL-6, IL-10, IL-12, and IL-13. […] No secretion of IFN-γ, IL-6, IL-10, IL-12, or IL-13 in response to αGalCer stimulation was detected from type I NKT cells isolated from ATRA injected mice.
(§1) Functional changes in type I NKT cells following in vivo administration of Tazarotene or ATRA was tested. Groups of mice were injected intraperitoneally with […] (15 mg/kg), 300 μg Tazarotene (15 mg/kg) or vehicle (DMSO) daily for a period of 5 days. Splenic Type I NKT cells were purified and cultured in vitro with increasing concentrations of αGalCer. Cell proliferation was measured by quantification of [^3H]-thymidine incorporation and the results are shown at FIG. 17.

liver type I NKT cells = assay: Flow cytometry count of liver type I NKT cells (αGalCer/CD1d-tetramer/TCRβ) after in vivo administration; conditions: mice injected i.p. 15 mg/kg daily for 5 days
Description: as §1
Mononuclear cells were isolated from livers of mice injected with either ATRA, Tazarotene or vehicle (DMSO) and stained with αGalCer/CD1d-tetramer and a pan anti-TCRβ antibodies. Flowcytometry was performed and the population of αGalCer/CD1d-tetramer/TCRβ expressing cells (type I NKT cells) was quantified as shown in FIG. 18.

[3] = system: alcohol-induced liver injury; assay: Alcohol-induced liver injury, chronic plus binge ethanol feeding: serum ALT and liver histology; format: in vivo, B6 (WT) male mice
Source text: Following acclimatization with nutritionally adequate Lieber-DeCarli liquid diet for a week, 6-8 week old male C57BL/6J mice (B6) and Jα18−/− mice, which lack type I NKT cells but not type 2 NKT cells, were given free access to a liquid diet containing 5% ethanol or an isocaloric dextrin maltose-containing diet (Bio-Serv, NJ). Precautions were taken to prepare the diet fresh every day using autoclaved water in sterilized feeders, changing feed daily.
B6 and Jα18−/− mice receiving the ethanol-containing diet were separated into two groups, the chronic ethanol feeding group and the chronic plus binge ethanol feeding group. Mice in the chronic ethanol feeding group were fed liquid diet containing 5% ethanol for up to 4-5 weeks. Mice in the chronic plus binge ethanol feeding group were fed liquid diet containing 5% ethanol for 10 days followed by (on day 11) a single high dose of gavaged ethanol (5 g/kg body weight). Mice in the control group were gavaged with isocaloric dextrin maltose. Following gavage, mice were kept on a temperature controlled warm pad and monitored. Though initially slow moving, most mice receiving the high dose of gavaged ethanol regained normal behavior within hours. Mice were euthanized 8-9 hr after gavage. […]
Serum ALT levels were determined for each group of mice. […]

[4] = system: MBPAc1-9-reactive CD4+ T cells; assay: Proliferation of MBPAc1-9-reactive CD4+ T cells ([3H]-thymidine incorporation); format: cell-based, naïve B10.PL VB8.2 TCR transgenic mice; conditions: ATRA 0.15, 1.2, 18.8 μg/ml
Description: The effect of ATRA on class II MHC-restricted conventional CD4 T Cells was tested by isolating myelin basic protein MBPAc1-9-reactive CD4+ T cells from naïve B10.PL VB8.2 TCR transgenic mice and culturing the cells in vitro with [^3H]-thymidine and an optimal concentration of MBPAc1-9 in the presence or absence of graded concentrations of ATRA (0.15, 1.2, 18.8 μg/ml). Proliferation of the MBPAc1-9-reactive CD4+ T cells was measured by [^3H]-thymidine incorporation.

[5] = system: Type I NKT hybridoma cells (Hy1.2); assay: IL-2 secretion by Hy1.2 cells pretreated with ATRA in the absence of antigen-presenting cells; format: cell-based; conditions: Hy1.2 pretreated 24 hr with 5, 10 or 20 μg/ml ATRA, washed, then APCs + graded αGalCer, 16 hour
Description: The effect of ATRA treatment on type I NKT cells in the absence of antigen-presenting cells was also measured. Type I NKT hybridoma cells (Hy1.2) were cultured in vitro either without ATRA or with 5 μg/ml, 10 μg/ml, or 20 μg/ml ATRA for 24 hr. The cells were then washed three times and co-cultured with irradiated splenocytes (APCs) in the presence of graded concentrations of the lipid antigen, αGalCer. Supernatants were collected 16 hour later and IL-2 levels were measured using IL-2 sandwich ELISA.

[6] = Example 16, splenocytes, αGalCer 10 ng/ml, increasing concentrations of ATRA or Tazarotene
[7] = Example 16, 1.2 Hyb, αGalCer 10 ng/ml, increasing concentrations of ATRA or Tazarotene
[8] = cells from mice injected i.p. with 0.3 mg/animal ATRA daily for 5 days

CCCCCCCCc1ccc(-c2ccc(C(=O)O)cc2)cc1 [AC55649]
type I NKT cell proliferation in response to αGalCer (type I NKT cells [1]; Example 12, 10^1 μg/ml): low or minimal proliferation | type I NKT cell proliferation in response to αGalCer (type I NKT cells [1]; Example 12, graded concentrations up to (below) 10^1 μg/ml): Reduced cell proliferation

Tazarotene
type I NKT cell proliferation (type I NKT cells [1]; [6]): achieves its inhibitory effects at lower concentrations; also recorded: better inhibition of type I NKT cells than ATRA | IL-2 secretion (type I NKT cells (Hy1.2); [7]): achieves its inhibitory effects at lower concentrations | proliferative response of splenic type I NKT cells to αGalCer stimulation (type I NKT cells [2]): lowest levels of proliferation | numbers of type I NKT cells in the livers vs control (liver type I NKT cells): no significant difference

CC1(C)CCC(C)(C)c2cc(C(=O)Nc3ccc(C(=O)O)cc3)ccc21 [AM580]
type I NKT cell proliferation in response to αGalCer (type I NKT cells [1]; Example 12, 10^1 μg/ml): proliferation was maintained

CC1=C(/C=C/C(C)=C/C=C/C(C)=C/C(=O)O)C(C)(C)CCC1 [ATRA, all trans retinoic acid]
protection from liver damage following excess alcohol consumption (summary of FIGS. 6 and 7) [3]: significantly inhibits liver damage | liver histology for hepatic steatohepatitis (fatty liver disease) ([3]; B6 mice, sulfatide or ATRA injected): little sign of fatty liver disease; also recorded: appears relatively normal | αGalCer-induced type I NKT cell proliferation compared with αGalCer alone (type I NKT cells [1]; 0.15 μg/ml ATRA + αGalCer): similar | αGalCer-induced type I NKT cell proliferation compared with αGalCer alone (type I NKT cells [1]; 1.2 μg/ml ATRA + αGalCer): reduced | αGalCer-induced type I NKT cell proliferation compared with αGalCer alone (type I NKT cells [1]; 18.8 μg/ml ATRA + αGalCer): greatest inhibition | type I NKT cell proliferation (type I NKT cells [1]; ATRA alone, no αGalCer): No or minimal proliferation | type I NKT cell proliferation in response to αGalCer (type I NKT cells [1]; Example 12, 10^1 μg/ml): low or minimal proliferation | type I NKT cell proliferation in response to αGalCer (type I NKT cells [1]; Example 14, 10^1 μg/ml): no or minimal proliferation | type I NKT cell proliferation at optimal concentration of RAR agonist (type I NKT cells [1]): lowest levels of proliferation | type I NKT cell proliferation (type I NKT cells [1]; [6]): inhibit | IL-2 secretion (type I NKT cells (Hy1.2); 0.15 μg/ml ATRA, αGalCer, irradiated APCs, 16 hours): not significantly affected | IL-2 secretion (type I NKT cells (Hy1.2); 1.2 μg/ml ATRA, αGalCer, irradiated APCs, 16 hours): significant reductions | IL-2 secretion (type I NKT cells (Hy1.2); 18.8 μg/ml ATRA, αGalCer, irradiated APCs, 16 hours): greatest reduction | IL-2 secretion (type I NKT cells (Hy1.2); [7]): inhibit | proliferative response of splenic type I NKT cells to αGalCer stimulation (type I NKT cells [2]): inhibits type I NKT cell activity | proliferation of type I NKT cells in response to αGalCer stimulation (type I NKT cells [2]; cells from WT mice injected i.p. with 0.3 mg/animal ATRA daily for 5 days): did not proliferate | IFN-γ secretion in response to αGalCer stimulation (type I NKT cells [2]; [8]): No secretion | IL-4 secretion in response to αGalCer stimulation (type I NKT cells [2]; [8]): Reduced levels | IL-6 secretion in response to αGalCer stimulation (type I NKT cells [2]; [8]): No secretion | IL-10 secretion in response to αGalCer stimulation (type I NKT cells [2]; [8]): No secretion | IL-12 secretion in response to αGalCer stimulation (type I NKT cells [2]; [8]): No secretion | IL-13 secretion in response to αGalCer stimulation (type I NKT cells [2]; [8]): No secretion | MBPAc1-9-stimulated proliferation of CD4+ T cells [4]: No inhibition; also recorded: does not directly inhibit | IL-2 secretion [5]: inhibits IL-2 secretion | numbers of type I NKT cells in the livers vs control (liver type I NKT cells): no significant difference

O=C(O)c1ccc(-c2ccc3cc(O)c(C45CC6CC(CC(C6)C4)C5)cc3c2)cc1 [CD1530]
type I NKT cell proliferation in response to αGalCer (type I NKT cells [1]; Example 12, 10^1 μg/ml): low or minimal proliferation | type I NKT cell proliferation at optimal concentration of RAR agonist (type I NKT cells [1]): lowest levels of proliferation | IL-2 secretion at optimal concentration of RAR agonist (type I NKT cells (Hy1.2); Example 15, 1.2 Hyb, αGalCer 10 ng/ml, comparison among RAR agonists): lowest levels of IL-2 secretion
